Test [1] concerns the target Recombinant human Cbl-b (aa 36-427) (Homo sapiens (Human), UniProt Q13191). The test is described as follows: Cbl-b Biochemical Assay (TR-FRET). Conditions: read-out: TR-FRET hCbl-b IC50. In short, it runs like this: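 IC50 from 4-parameter fit of % inhibition (DMSO max, reference-inhibitor min), duplicate ten-point series. Compound preincubated with 6 nM Cbl-b, then Src-Zap70 (1-2.5 nM)/0.5 mM ATP reaction 60 min RT; EDTA quench with labelled UBE2D2-Ub and streptavidin-terbium, 60 min, HTRF at 520 nm.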

Test [2] deals with Recombinant human c-Cbl (aa 47-435) (Homo sapiens (Human), UniProt P22681). Briefly: c-Cbl Biochemical Assay (TR-FRET). The procedure, abridged:
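TR-FRET binding of UBE2D2-Ub-Bodipy (100 nM) to biotinylated c-Cbl (aa 47-435, 6 nM) via Streptavidin-Tb, measured after c-Cbl activation by Src-Zap70 with 0.5 mM ATP (60-90 min RT, 30 min compound preincubation). Ten-point half-log dilutions, 1% DMSO; IC50 by 4-parameter fit of normalized inhibition.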
Background: Time-resolved FRET reads energy transfer from a long-lived donor to a nearby acceptor.

For orientation: IC50 means the point on the concentration scale where inhibition reaches its midpoint.

Bounds are passed on as bounds.

Chain of Recombinant human c-Cbl (aa 47-435) (P22681 47-435): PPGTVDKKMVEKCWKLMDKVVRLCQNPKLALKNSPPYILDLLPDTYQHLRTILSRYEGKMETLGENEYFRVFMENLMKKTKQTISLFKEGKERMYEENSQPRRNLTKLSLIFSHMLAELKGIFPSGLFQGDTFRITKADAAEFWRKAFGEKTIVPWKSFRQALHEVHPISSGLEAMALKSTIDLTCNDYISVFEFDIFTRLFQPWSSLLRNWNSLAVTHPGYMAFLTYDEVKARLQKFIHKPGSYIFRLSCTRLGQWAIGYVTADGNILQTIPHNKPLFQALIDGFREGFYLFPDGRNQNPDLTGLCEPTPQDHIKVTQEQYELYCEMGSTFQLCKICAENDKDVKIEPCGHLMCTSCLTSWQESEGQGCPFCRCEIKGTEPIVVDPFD
Chain of Recombinant human Cbl-b (aa 36-427) (Q13191 36-427): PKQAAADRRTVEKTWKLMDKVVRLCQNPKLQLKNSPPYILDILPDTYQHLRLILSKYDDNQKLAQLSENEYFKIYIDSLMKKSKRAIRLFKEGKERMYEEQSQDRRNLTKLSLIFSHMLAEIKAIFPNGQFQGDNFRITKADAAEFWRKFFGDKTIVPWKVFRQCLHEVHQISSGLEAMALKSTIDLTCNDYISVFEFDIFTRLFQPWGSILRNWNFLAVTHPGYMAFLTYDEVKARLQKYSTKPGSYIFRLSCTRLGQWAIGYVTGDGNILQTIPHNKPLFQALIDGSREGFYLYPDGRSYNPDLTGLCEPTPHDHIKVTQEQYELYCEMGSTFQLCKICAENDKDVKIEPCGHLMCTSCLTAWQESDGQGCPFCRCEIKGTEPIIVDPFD

Turning to `CO[C@H](C)CNCc1cc(F)c2c(c1)C(=O)N(c1cc(-c3ccc(C#N)cc3-c3nncn3C)cc(C3CC3)n1)C2` [AKV-1, 4-{2-Cyclopropyl-6-[4-fluoro-6-({[(2R)-2-methoxypropyl]amino}methyl)-1-oxo-3H-isoindol-2-yl]pyridin-4-yl}-3-(4-methyl-1,2,4-triazol-3-yl)benzonitrile], the IC50 in test [1] and in test [2] was not above 200 nM throughout.
In the case of `C[C@H](c1ccc2c(c1)C(=O)N(c1cc(-c3ccc(C#N)cc3-c3nncn3C)cc(C3CC3)n1)C2)N1CC2(COC2)C1` [AOE-1, 4-(2-Cyclopropyl-6-{6-[(1R)-1-{2-oxa-6-azaspiro[3.3]heptan-6-yl}ethyl]-1-oxo-3H-isoindol-2-yl}pyridin-4-yl)-3-(4-methyl-1,2,4-triazol-3-yl)benzonitrile], the concentration for half-maximal inhibition (IC50) in test [1] and in test [2] was not above 200 nM throughout.
`CCOc1cc(-c2ccc(F)cc2-c2nncn2C)cc(N2Cc3c(cc(COCCO)cc3C(F)(F)F)C2=O)n1` [AHQ-4, 2-(6-Ethoxy-4-(4-fluoro-2-(4-methyl-4H-1,2,4-triazol-3-yl)phenyl)pyridin-2-yl)-6-((2-hydroxyethoxy)methyl)-4-(trifluoromethyl)isoindolin-1-one]: the IC50 in test [1] and in test [2] was not above 200 nM in each case.
As for `C[C@H](NCc1ccc2c(c1)C(=O)N(c1cc(-c3ccc(C#N)cc3-c3nncn3C)cc(C3CC3)n1)C2)C1COC1` [ANK-2, (S)-4-(2-Cyclopropyl-6-(6-(((1-(oxetan-3-yl)ethyl)amino)methyl)-1-oxoisoindolin-2-yl)pyridin-4-yl)-3-(4-methyl-4H-1,2,4-triazol-3-yl)benzonitrile], the IC50 in test [1] and in test [2] was not above 200 nM throughout.
Turning to `COCCOCc1ccc2c(c1)C(=O)N(c1cc(-c3ccc(C#N)cc3-c3nncn3C)cc(C3CC3)n1)C2` [AIQ-2, 4-(2-Cyclopropyl-6-(6-((2-methoxyethoxy)methyl)-1-oxoisoindolin-2-yl)pyridin-4-yl)-3-(4-methyl-4H-1,2,4-triazol-3-yl)benzonitrile], the IC50 in test [1] and in test [2] was not above 200 nM in each case.
Consider `COC[C@H](C)NCc1cc(F)c2c(c1)C(=O)N(c1cc(-c3ccc(C#N)cc3-c3nncn3C)cc(C3CC3)c1)C2` [ALH-1, 3′-Cyclopropyl-5′-[4-fluoro-6-({[(2S)-1-methoxypropan-2-yl]amino}methyl)-1-oxo-3H-isoindol-2-yl]-2-(4-methyl-1,2,4-triazol-3-yl)-[1,1′-biphenyl]-4-carbonitrile], for which the IC50 in test [1] and in test [2] was not above 200 nM each time.
In the case of `Cn1cnnc1-c1cc(C#N)ccc1-c1cc(C2CC2)nc(N2Cc3ccc(C(C)(C)NCC4CC4)cc3C2=O)c1` [ALL-2, 4-[2-Cyclopropyl-6-(6-{2-[(cyclopropylmethyl)amino]propan-2-yl}-1-oxo-3H-isoindol-2-yl)pyridin-4-yl]-3-(4-methyl-1,2,4-triazol-3-yl)benzonitrile], the IC50 in test [1] and in test [2] was not above 200 nM each time.
For `CN1CC[C@@H](NCc2ccc3c(c2)C(=O)N(c2cc(-c4ccc(C#N)cc4-c4nncn4C)cc(C4CC4)n2)C3)C1=O` [AIZ-2, 4-{2-Cyclopropyl-6-[6-({[(3R)-1-methyl-2-oxopyrrolidin-3-yl]amino}methyl)-1-oxo-3H-isoindol-2-yl]pyridin-4-yl}-3-(4-methyl-1,2,4-triazol-3-yl)benzonitrile], the concentration for half-maximal inhibition (IC50) in test [1] and in test [2] was not above 200 nM each time.
Consider `Cn1cnnc1-c1cnn(C)c1-c1cc(C2CC2)nc(N2Cc3c(cc(CO)cc3C(F)(F)F)C2=O)c1` [AKI-1, 2-{6-Cyclopropyl-4-[2-methyl-4-(4-methyl-1,2,4-triazol-3-yl)pyrazol-3-yl]pyridin-2-yl}-6-(hydroxymethyl)-4-(trifluoromethyl)-3H-isoindol-1-one], for which the IC50 in test [1] and in test [2] was not above 200 nM each time.
`COCC1(NCc2ccc3c(c2)C(=O)N(c2cc(-c4ccc(C#N)cc4-c4nncn4C)cc(C4CC4)n2)C3)CCC1` [AJG-2, 4-(2-cyclopropyl-6-(6-(((1-(methoxymethyl)cyclobutyl)amino)methyl)-1-oxoisoindolin-2-yl)pyridin-4-yl)-3-(4-methyl-4H-1,2,4-triazol-3-yl)benzonitrile]: the IC50 in test [1] and in test [2] was not above 200 nM each time.
As for `Cn1cnnc1-c1cc(F)cc(F)c1-c1cc(C2CC2)nc(N2Cc3ccc(CNCC4(O)CCC4)cc3C2=O)c1` [AII-9, 2-{6-Cyclopropyl-4-[2,4-difluoro-6-(4-methyl-1,2,4-triazol-3-yl)phenyl]pyridin-2-yl}-6-({[(1-hydroxycyclobutyl)methyl]amino}methyl)-3H-isoindol-1-one], the IC50 in test [1] and in test [2] was not above 200 nM in each case.
Regarding `Cn1cnnc1-c1cc(C#N)ccc1-c1cc(C2CC2)nc(N2Cc3cnc(CNCC4CCC4)cc3C2=O)c1` [ALF-2, 4-[2-(6-{[(Cyclobutylmethyl)amino]methyl}-1-oxo-3H-pyrrolo[3,4-c]pyridin-2-yl)-6-cyclopropylpyridin-4-yl]-3-(4-methyl-1,2,4-triazol-3-yl)benzonitrile], the IC50 in test [1] and in test [2] was not above 200 nM each time.
Turning to `COCC1(NCc2ccc3c(c2)C(=O)N(c2cc(-c4ccc(C#N)cc4-c4nncn4C)cc(C4CC4)n2)C3)CC1` [ALT-2, 4-{2-Cyclopropyl-6-[6-({[1-(methoxymethyl)cyclopropyl]amino}methyl)-1-oxo-3H-isoindol-2-yl]pyridin-4-yl}-3-(4-methyl-1,2,4-triazol-3-yl)benzonitrile], the IC50 in test [1] and in test [2] was not above 200 nM throughout.
As for `Cn1cnnc1-c1cc(C#N)ccc1-c1cc(C2CC2)nc(N2Cc3c(F)cc(CN4CC[C@H]5COC[C@@H]54)cc3C2=O)c1` (stereo in doubt) [AOT-2, 4-(2-Cyclopropyl-6-(4-fluoro-6-((hexahydro-1H-furo[3,4-b]pyrrol-1-yl)methyl)-1-oxoisoindolin-2-yl)pyridin-4-yl)-3-(4-methyl-4H-1,2,4-triazol-3-yl)benzonitrile], the IC50 in test [1] and in test [2] was not above 200 nM in each case.
For the molecule `CN(Cc1cc(F)c2c(c1)C(=O)N(c1cc(-c3ccc(C#N)cc3-c3nncn3C)cc(C3CC3)n1)C2)CC1CCC1` [AKT-1, 4-[2-(6-{[(Cyclobutylmethyl)(methyl)amino]methyl}-4-fluoro-1-oxo-3H-isoindol-2-yl)-6-cyclopropylpyridin-4-yl]-3-(4-methyl-1,2,4-triazol-3-yl)benzonitrile], the half-inhibitory concentration (IC50) in test [1] and in test [2] was not above 200 nM throughout.
For the molecule `Cn1cnnc1-c1ccccc1-c1cc(N2Cc3c(cccc3C(F)(F)F)C2=O)cc2cc[nH]c12` [AHY-5, 2-{7-[2-(4-Methyl-1,2,4-triazol-3-yl)phenyl]-1H-indol-5-yl}-4-(trifluoromethyl)-3H-isoindol-1-one], the IC50 in test [1] and in test [2] was 10000 to 50000 nM in each case.
With `Cn1cnnc1-c1cc(C#N)ccc1-c1cc(C2CC2)nc(N2Cc3cc(Cl)c(CO)cc3C2=O)c1` [AKN-12, 4-{2-[5-Chloro-6-(hydroxymethyl)-1-oxo-3H-isoindol-2-yl]-6-cyclopropylpyridin-4-yl}-3-(4-methyl-1,2,4-triazol-3-yl)benzonitrile], the IC50 in test [1] and in test [2] was not above 200 nM throughout.
For the molecule `Cn1cnnc1-c1cc(C#N)ccc1-c1cc(C2CC2)nc(N2Cc3ccc(C(C)(C)N)cc3C2=O)c1` [ALK-9, 4-{2-[6-(2-Aminopropan-2-yl)-1-oxo-3H-isoindol-2-yl]-6-cyclopropylpyridin-4-yl}-3-(4-methyl-1,2,4-triazol-3-yl)benzonitrile], the IC50 in test [1] and in test [2] was not above 200 nM in each case.
Turning to `Cn1cnnc1-c1cc(C#N)ccc1-c1cc(C2CC2)nc(N2Cc3ccc(CNCC4(O)CCCC4)cc3C2=O)c1` [AIF-1, 4-{2-Cyclopropyl-6-[6-({[(1-hydroxycyclopentyl)methyl]amino}methyl)-1-oxo-3H-isoindol-2-yl]pyridin-4-yl}-3-(4-methyl-1,2,4-triazol-3-yl)benzonitrile], the concentration for half-maximal inhibition (IC50) in test [1] and in test [2] was not above 200 nM throughout.
Turning to `Cn1cnnc1-c1cc(C#N)ccc1-c1cc(C2CC2)nc(N2Cc3ccc(CNCC4CCCC4)cc3C2=O)c1` [AIG-1, 4-[2-(6-{[(Cyclopentylmethyl)amino]methyl}-1-oxo-3H-isoindol-2-yl)-6-cyclopropylpyridin-4-yl]-3-(4-methyl-1,2,4-triazol-3-yl)benzonitrile], the IC50 in test [1] and in test [2] was not above 200 nM each time.
Turning to `Cn1cnnc1-c1cc(C#N)ccc1-c1cccc(N2Cc3ccc(CNCC4CC4)cc3C2=O)c1` [AJE-2, 3′-(6-(((Cyclopropylmethyl)amino)methyl)-1-oxoisoindolin-2-yl)-2-(4-methyl-4H-1,2,4-triazol-3-yl)-[1,1′-biphenyl]-4-carbonitrile], the IC50 in test [1] and in test [2] was not above 200 nM throughout.
As to `Cn1cnnc1-c1cc(C#N)ccc1-c1cc(C2CC2)nc(N2Cc3ccc(CNCC4(F)COC4)cc3C2=O)c1` [ANL-2, 4-{2-Cyclopropyl-6-[6-({[(3-fluorooxetan-3-yl)methyl]amino}methyl)-1-oxo-3H-isoindol-2-yl]pyridin-4-yl}-3-(4-methyl-1,2,4-triazol-3-yl)benzonitrile], the half-inhibitory concentration (IC50) in test [1] and in test [2] was not above 200 nM in each case.
With `Cn1cnnc1-c1cc(C#N)ccc1-c1cc(C2CC2)nc(N2Cc3ccc(CNCC4(CO)CCC4)cc3C2=O)c1` [AMA-2, 4-(2-Cyclopropyl-6-{6-[({[1-(hydroxymethyl)cyclobutyl]methyl}amino)methyl]-1-oxo-3H-isoindol-2-yl}pyridin-4-yl)-3-(4-methyl-1,2,4-triazol-3-yl)benzonitrile], the IC50 in test [1] and in test [2] was not above 200 nM in each case.

Source of the values: US12325697B2 (Nimbus Clio, Inc., priority 2021, dated 2025).
